In ChEMBL document CHEMBL1201862, “PubChem BioAssay data set” (2004):
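Protocol summary: plate cells (96-well), add compound at 5 concentrations, incubate 48 h, interpolate endpoints linearly. GI50 is the concentration that inhibits growth by half.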 Activity calls are given as the source filed them. Rule as the data show it: active = GI50 up to about 1.1 µM and inactive = higher.

Key:
Test in all cases: inhibition of tumour cell growth, NCI panel, 48 h
786-0 = tested on: 786-0
ACHN = tested on: ACHN
DU-145 = tested on: DU-145
HCT-15 = tested on: HCT-15
HOP-92 = tested on: HOP-92
HT-29 = tested on: HT-29
MOLT-4 = tested on: MOLT-4
Malme-3M = tested on: Malme-3M
NCI-H226 = tested on: NCI-H226
NCI-H522 = tested on: NCI-H522
SF-268 = tested on: SF-268
SF-295 = tested on: SF-295
SK-MEL-28 = tested on: SK-MEL-28
SK-MEL-2 = tested on: SK-MEL-2
SK-MEL-5 = tested on: SK-MEL-5
SK-OV-3 = tested on: SK-OV-3
SN12C = tested on: SN12C
UACC-257 = tested on: UACC-257
UACC-62 = tested on: UACC-62
OVCAR-4 = tested on: OVCAR-4

| Structure (SMILES) | GI50 (786-0) | GI50 (ACHN) | GI50 (DU-145) | GI50 (HCT-15) | GI50 (HOP-92) | GI50 (HT-29) | GI50 (MOLT-4) | GI50 (Malme-3M) | GI50 (NCI-H226) | GI50 (NCI-H522) | GI50 (SF-268) | GI50 (SF-295) | GI50 (SK-MEL-28) | GI50 (SK-MEL-2) | GI50 (SK-MEL-5) | GI50 (SK-OV-3) | GI50 (SN12C) | GI50 (UACC-257) | GI50 (UACC-62) | GI50 (OVCAR-4) |
| --- | --- | --- | --- | --- | --- | --- | --- | --- | --- | --- | --- | --- | --- | --- | --- | --- | --- | --- | --- | --- |
| [N-]=[N+]=NCc1cccc(Nc2cc(=O)[nH]c(=O)[nH]2)c1 | > 100 µM (inactive) | > 100 µM (inactive) | > 100 µM (inactive) | > 100 µM | 74 µM (inactive) | > 100 µM (inactive) | > 100 µM (inactive) | > 100 µM (inactive) | > 100 µM (inactive) | > 100 µM (inactive) | > 100 µM (inactive) | 57.3 µM (inactive) | > 100 µM (inactive) | > 100 µM (inactive) | > 100 µM (inactive) | > 100 µM (inactive) | > 100 µM (inactive) | 30.8 µM (inactive) | > 100 µM (inactive) |  |
| Cn1c(=O)c2c(nc(N/N=C3/SCC(=O)N3Cc3ccccc3)n2C)n(C)c1=O | > 100 µM (inactive) | > 100 µM (inactive) | > 100 µM (inactive) | 85.5 µM | 5.9 µM (inactive) | 48.4 µM (inactive) |  | > 100 µM (inactive) | > 100 µM (inactive) | 71.4 µM (inactive) | 60.7 µM (inactive) | > 100 µM (inactive) | > 100 µM (inactive) | 58.7 µM (inactive) | 34 µM (inactive) | 43.5 µM (inactive) | > 100 µM (inactive) | > 100 µM (inactive) | 64.4 µM (inactive) | 26.4 µM (inactive) |
| Cc1c(Cl)nc(Cl)nc1Cl | 1.48 µM (inactive) | 0.421 µM (active) | 3.63 µM (inactive) | 0.287 µM | 2.12 µM (inactive) | 0.818 µM (active) | 0.321 µM (active) | 1.05 µM (active) | 3.21 µM (inactive) | 0.044 µM (active) | 1.73 µM (inactive) | 5.7 µM (inactive) | 3.18 µM (inactive) |  | 2.16 µM (inactive) | 3.91 µM (inactive) | 2.69 µM (inactive) | 2.3 µM (inactive) | 4 µM (inactive) | 1.46 µM (inactive) |
| C=CC(Br)(CBr)CCC(Cl)C(C)C (centres undefined) |  | 2.53 µM (inactive) | 2.72 µM (inactive) |  | 2.04 µM (inactive) | 1.66 µM (inactive) | 1.06 µM (active) | 1.58 µM (inactive) | 7.28 µM (inactive) | 1.42 µM (inactive) | 1.56 µM (inactive) | 1.84 µM (inactive) | 1.58 µM (inactive) | 1.92 µM (inactive) | 1.85 µM (inactive) | 4.25 µM (inactive) | 1.73 µM (inactive) | 2.25 µM (inactive) | 1.5 µM (inactive) | 1.49 µM (inactive) |
| COC(=O)Cc1cc(O)c(C/C=C(\C)CC/C=C(\C)C(O)C(=O)C=C(C)C)cc1O (centres undefined) | 38.6 µM (inactive) | 24.9 µM (inactive) | 45.4 µM (inactive) |  | 20.4 µM (inactive) | 27.4 µM (inactive) | 14.5 µM (inactive) | 17.3 µM (inactive) | 26.3 µM (inactive) | 21.1 µM (inactive) | 19.7 µM (inactive) | 24.2 µM (inactive) |  | 24.6 µM (inactive) | 17.1 µM (inactive) | 29.7 µM (inactive) | 22.4 µM (inactive) | 30.7 µM (inactive) | 19.9 µM (inactive) | 40.4 µM (inactive) |
| CN1COCc2c1ccc1cc3ccc4c(c3nc21)COCN4S(C)(=O)=O | 73.6 µM (inactive) | > 100 µM (inactive) | > 100 µM (inactive) | > 100 µM | > 100 µM (inactive) | > 100 µM (inactive) | > 100 µM (inactive) | > 100 µM (inactive) | > 100 µM (inactive) | > 100 µM (inactive) | > 100 µM (inactive) | > 100 µM (inactive) | > 100 µM (inactive) |  | > 100 µM (inactive) | > 100 µM (inactive) | > 100 µM (inactive) | > 100 µM (inactive) | > 100 µM (inactive) | > 100 µM (inactive) |
| CC(C)C1=CC23CCC4C(C)(C(=O)O)CCCC4(C)C2CC1C1C(=O)N(c2ccc(Cc4ccc(N5C(=O)C6C7CC8C9(C)CCCC(C)(C(=O)O)C9CCC8(C=C7C(C)C)C6C5=O)cc4)cc2)C(=O)C13 (centres undefined) | 10.9 µM (inactive) | 5.41 µM (inactive) | 10.3 µM (inactive) | 10.6 µM | 20.1 µM (inactive) | 3.17 µM (inactive) | 5.5 µM (inactive) | 16.7 µM (inactive) | 13.6 µM (inactive) | 8.18 µM (inactive) | 8.81 µM (inactive) |  | 10.9 µM (inactive) | 12 µM (inactive) | 12.4 µM (inactive) |  | 10.1 µM (inactive) |  | 11 µM (inactive) | 14.4 µM (inactive) |
